Assay results: patent publication US20220041538A1, “CA[…] ACID AND SALTS THEREOF” (EMERALD HEALTH PHARMACEUTICALS INC, priority 2018, published 2022)
“Also recorded” adds a separate entry of the source. Where two headings read alike, the source gives them in different places.

Assays:
[1] = test system: striatum of 3NP-intoxicated mice; test: Histological analysis of striatum in 3NP model (Nissl staining, Iba-1 immunostaining); type: in vivo; settings: oral and intraperitoneal
From the text: Loss of neurons in the striatum (Nissl staining) and Iba1 (microglia marker) were detected by immunostaining in the coronal sections of striatum of mice treated with vehicle, 3NP+ vehicle, 3NP+ compound I (oral and intraperitoneal). Quantification of Nissl staining (A) and Iba1 (B) positive cells in the mouse striatum. Total average number of neurons and microglia is shown.
Quantification of Nissl staining (A) and Iba1 (B) positive cells in the mouse striatum. Total average number of neurons and microglia is shown.
Brains from 3NP model were fixed in 4% paraformaldehyde and 5-μm-thick sections for Nissl staining and immunohistochemical analysis of Iba-1, a marker of microglial cells. For immunohistochemistry sections were incubated overnight at 4° C. with monoclonal anti-mouse Iba-1 antibody (Millipore, Mass., USA) used at 1/50 dilution. After incubation with the corresponding primary antibody, sections were washed in 0.1 M PBS and incubated O/N at 4° C. with goat anti-mouse (Millipore, Mass., USA) secondary antibody. […] Negative control sections were obtained using the same protocol with omission of the primary antibody. All sections for each immunohistochemical procedure were processed at the same time and under the same conditions. […]

IL-6 = test: Real-time quantitative PCR of striatum, 3NP model, IL-6; settings: 3NP mice vs 3NP+Vehicle; I 10 mg/kg oral and i.p.; IIe 30 mg/kg oral, 10 mg/Kg i.p.
Method: (§1) Expression levels were calculated using the 2^−ΔΔCt method. Values are expressed as means±SEM for 3 animals per group.
(§2) Total RNA was isolated from striata (3NP model) using RNeasy Lipid Tissue Mini Kit (Qiagen, GmbH). The total amount of RNA extracted was quantitated by spectrometry at 260 nm and its purity from the ratio between the absorbance values at 260 and 280 nm. Genomic DNA was removed to eliminate DNA contamination. Single-stranded complementary DNA was synthesized from up to 1 μg of total RNA (pool from at least 3 animals per group) using iScript™ cDNA Synthesis Kit (Bio-Rad, Hercules, Calif., USA). The reaction mixture was kept frozen at −20° C. until enzymatic amplification. The iQ™ SYBR Green Supermix (Bio-Rad) was used to quantify mRNA levels for TNF-α and IL-6. Real-time PCR was performed using a CFX96 Real-Time PCR Detection System (Bio-Rad). The GAPDH housekeeping gene was used to standardize the mRNA expression levels in every sample. Expression levels were calculated using the 2^−ΔΔCt method.

TNFα = test: Real-time quantitative PCR of striatum, 3NP model, TNFα; settings: 3NP mice vs 3NP+Vehicle; I 10 mg/kg oral and i.p.; IIe 30 mg/kg oral, 10 mg/Kg i.p.
Method: as §1, §2

6-OHDA challenged mice = test: 6-OHDA murine model of Parkinson's disease (pole test, cylinder rearing test); type: in vivo; settings: oral or intraperitoneal, 14 days
Method: C57BL/6 mice were unilaterally injected intracerebroventricullarly with 6-hydroxydopamine (6-OHDA) or saline (control mice) and subjected to chronic intraperitoneal treatment with cannabigerol quinone acid (1) (oral […] in sesame oil, and intraperitoneal 10 mg/Kg in Tween80/Saline ( 1/16)) or vehicle (14 days), starting 16 h after the 6-OHDA injection. SHAM group corresponds to mice subjected to the surgical manipulation without injection of 6-OHDA. Motor coordination was evaluated by rotarod performance and motor activity was evaluated using a computer-aided actimeter. A: pole test results after oral treatment, B: cylinder rearing test results after oral treatment, C: pole test results after intraperitoneal treatment, D: cylinder rearing test results after intraperitoneal treatment.
Motor coordination was evaluated by rotarod performance and motor activity was evaluated using a computer-aided actimeter. A: pole test results after oral treatment, B: cylinder rearing test results after oral treatment, C: pole test results after intraperitoneal treatment, D: cylinder rearing test results after intraperitoneal treatment.
C57BL/6 mice pretreated intracerebroventricularly were anesthetized with an intraperitoneal injection of 200 mg/Kg of 2,2,2-tribromoethanol (Sigma-Aldrich) and placed in a stereotaxic frame with a mouse adapter (David Kopf Instruments, Tujunga, Calif., USA). […]
The pole test was used to detect bradykinesia and motor and cylinder rearing test to evaluate sensory-motor deficits in PD mice. For Pole test mice were placed head-upward on the top of a vertical rough-surfaced pole (diameter 8 mm; height 55 cm) and the time until animals descended to the floor was recorded with a maximum duration of 90 s. […] For Cylinder Rearing Test (CRT) the initial forepaw (left, right, or both) preference after placing the mouse in a methacrylate transparent cylinder of 15.5 cm in diameter and 12.7 cm in height was measured. […]

3NP-intoxicated mice = test: 3NP murine model of Huntington's disease, behavioral score; type: in vivo; settings: oral and intraperitoneal; I 10 mg/Kg both routes; sodium salt 30 mg/Kg oral, 10 mg/Kg i.p.
Method: Mice were subjected to behavioral tests for determining their neurological status after the treatment with oral cannabigerol quinone acid (I) (10 mg/Kg dissolved in sesame oil) and after intraperitoneal delivery (10 mg/Kg dissolved in ethanol/cremophor/saline). Hind limb clasping, Locomotor activity, and kyphosis were rated from 0 to 2 based on severity: a score of 0 typically indicates normal function and 2 seriously affected.
Mice were subjected to behavioral tests for determining their neurological status after the treatment with oral sodium salt of the cannabigerol quinone acid (30 mg/Kg dissolved saline) and after intraperitoneal delivery (10 mg/Kg dissolved in saline). Hind limb clasping, Locomotor activity, and kyphosis were rated from 0 to 2 based on severity: a score of 0 typically indicates normal function and 2 seriously affected. […]
Lesions of the striatum were induced with 3-NP in adult (16-week-old; 30 g) male C57BL/6 mice (Harlan Ibérica, Barcelona, Spain). […] We evaluated the general locomotor activity, the hindlimb clasping and dystonia, and the truncal dystonia. […]

PPARγ = target: T1, PPARγ (Homo sapiens, UniProt P37231); test: PolarScreen PPAR Competitor Assay (PPARγ binding, fluorescence polarization)
T1 sequence (P37231 238-505 limits assumed): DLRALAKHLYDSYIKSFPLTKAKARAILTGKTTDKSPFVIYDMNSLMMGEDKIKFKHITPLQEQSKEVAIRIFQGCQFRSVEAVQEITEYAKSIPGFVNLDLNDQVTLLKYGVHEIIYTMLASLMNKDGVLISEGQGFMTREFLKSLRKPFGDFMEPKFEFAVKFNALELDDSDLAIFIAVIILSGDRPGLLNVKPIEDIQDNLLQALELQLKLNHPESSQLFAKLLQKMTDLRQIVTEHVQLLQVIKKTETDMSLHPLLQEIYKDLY
Method: PPARγ binding activity was determined by using PolarScreen™ PPAR Competitor Assay kit (Life Technologies), according to the manufacturer's specifications. The PolarScreen™ PPAR Competitor Assay is a binding assay for determining IC50 values of compounds that bind to PPARγ.
Concentration of the compound of formula I and salts of formula II resulting in a half maximal shifts in polarization value determines the IC50.

Nrf2 = settings: cited from earlier work

| Compound | reactive microgliosis (Iba-1+ cells) [1] | striatal neurons (Nissl staining) against 3NP toxicity [1] | gene expression of IL-6 in striatum (IL-6) | gene expression of TNFα in striatum (TNFα) | bradykinesia (pole test) (6-OHDA challenged mice) | clinical symptoms in 6-OH-DA challenged mice (6-OHDA challenged mice) | motor deficit (cylinder rearing test) (6-OHDA challenged mice) | clinical symptoms induced by 3-NP intoxication (behavioral score: hind limb clasping, locomotor activity, kyphosis) (3NP-intoxicated mice) | Remaining fluorescence polarization (%) (PPARγ; compound concentration 0.01 ∝M) | Remaining fluorescence polarization (%) (PPARγ; compound concentration 0.05 ∝M) | Remaining fluorescence polarization (%) (PPARγ; compound concentration 0.1 ∝M) | Remaining fluorescence polarization (%) (PPARγ; compound concentration 0.5 ∝M) | Remaining fluorescence polarization (%) (PPARγ; compound concentration 1 ∝M) | Remaining fluorescence polarization (%) (PPARγ; compound concentration 5 ∝M) | Remaining fluorescence polarization (%) (PPARγ; compound concentration 10 ∝M) | Remaining fluorescence polarization (%) (PPARγ; compound concentration 25 ∝M) | Remaining fluorescence polarization (%) (PPARγ; compound concentration 50 ∝M) | Nrf2 activation (electrophilic activity) (Nrf2) | Nrf2 activation (electrophilic activity) (Nrf2; listed as CBG-Q) |
| --- | --- | --- | --- | --- | --- | --- | --- | --- | --- | --- | --- | --- | --- | --- | --- | --- | --- | --- | --- |
| CCCCCC1=C(C(=O)O)C(=O)C(C/C=C(\C)CCC=C(C)C)=C(O)C1=O [I, cannabigerol quinone acid] | prevented the induction of reactive microgliosis | preservation of striatal neurons | down regulated; also recorded: attenuated the up-regulation | down regulated; also recorded: attenuated the up-regulation | attenuated | alleviates clinical symptoms | attenuated | clearly alleviates the clinical symptoms | 97.8 | 97.3 | 87.3 | 78.2 | 53.3 | 20.7 | 16.5 | 24.4 | 34.4 |  |  |
| CCCCCC1=CC(=O)C(C/C=C(\C)CCC=C(C)C)=C(O)C1=O [VCE-003, cannabigerol hydroxy-quinone] |  |  |  |  |  |  |  |  |  |  |  |  |  |  |  |  |  | electrophilic (Nrf2 activation) | activates the transcription factor Nrf2 |
